The target of assay [1] is full length recombinant Pim-3 (Homo sapiens (Human), UniProt Q86V86). Put plainly: Pim enzyme assay (HTRF, phosphorylation of biotinylated-BAD (S112) peptide), Pim-3. The format is biochemical. The conditions noted are these: read-out: Pim3 IC50. In a few lines: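 Full-length recombinant Pim-3 phosphorylated biotinylated BAD (S112) peptide in 60 mM Hepes pH 7.0, 0.05% BSA, 2 mM DTT for 1 h 30 min at 22 °C. After EDTA stop, HTRF was read with Eu anti-phospho-BAD and streptavidin-APC. IC50 came from 4-parameter logistic fit of percent-of-control values.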

Assay [2] deals with Pim-1 stably transfected U2OS human osteogenic sarcoma line. Put plainly: Pim cell assay U2OS (phospho-BAD normalized against total BAD), Pim-1 transfected. Format: cell-based. The method, then:
The cell lines used in the assay were generated by the stable transfection of either Pim-1 or Pim-2 into the U2OS human osteogenic sarcoma line. The assay for determination of the Pim activity in the engineered U2OS cell lines measures levels of phospho-BAD normalized against total BAD protein levels. It was conducted as follows:
The adherent cells were dissociated from the flasks using non-enzymatic cell dissociation solution (Sigma #C5914). […] The cells were then incubated overnight at 37° C., 5% CO2.
In addition to the 10-point dosing curve of the test compound, DMSO alone was run as the high control.
This dilution in DMSO was then diluted again into cell growth medium. Aliquots (12 μL) of the compound diluted in growth medium were then transferred to the appropriate wells of the 96-well plates containing cells to a final DMSO concentration of 0.3%. The cell plates were then incubated with compound for 29 min at 37° C., 5% CO2.
The cell plates containing lysis buffer were then immediately stored at −70° C.
These prepared lysates were then assayed for phospho and total BAD according to the manufacturer's protocols (Meso Scale Diagnostics, Cat#K15103C-3 & #K15103D-3). The plates were read on the MSD Sector Imager 6000, and results were calculated according to the assay protocols ((% Phosphoprotein=((2×Phospho signal)/(Phospho signal+Total signal))×100)).

Assay [3] addresses full length recombinant Pim-2 (Homo sapiens (Human), UniProt Q9P1W9). The assay can be described thus: Pim enzyme assay (HTRF, phosphorylation of biotinylated-BAD (S112) peptide), Pim-2. The format is biochemical. The conditions noted are these: read-out: Pim2_IC50. A general note: In TR-FRET formats the signal depends on donor and acceptor labels being close together.
Assay [4] deals with full length recombinant Pim-1 (Homo sapiens (Human), UniProt P11309). The assay can be described thus: Pim enzyme assay (HTRF, phosphorylation of biotinylated-BAD (S112) peptide), Pim-1. Format: biochemical.
Setting [5] is: Homo sapiens, U2OS, read-out: U2OS Pim1_Cell_IC50.
Setting [6] is: Pim-1 enzyme assay, read-out: Pim_1_IC50.
[7] abbreviates: Homo sapiens, U2OS, read-out: U2OS Pim1_Cell_IC50, U2OS cells, Pim-1 transfected.
Where [8] appears, read: read-out: U2OS Pim1_Cell_IC50, U2OS cells, Pim-1 transfected.

Like-named read-outs stand apart in the source and are kept apart here.

Sequence of full length recombinant Pim-1 (P11309 whole entry): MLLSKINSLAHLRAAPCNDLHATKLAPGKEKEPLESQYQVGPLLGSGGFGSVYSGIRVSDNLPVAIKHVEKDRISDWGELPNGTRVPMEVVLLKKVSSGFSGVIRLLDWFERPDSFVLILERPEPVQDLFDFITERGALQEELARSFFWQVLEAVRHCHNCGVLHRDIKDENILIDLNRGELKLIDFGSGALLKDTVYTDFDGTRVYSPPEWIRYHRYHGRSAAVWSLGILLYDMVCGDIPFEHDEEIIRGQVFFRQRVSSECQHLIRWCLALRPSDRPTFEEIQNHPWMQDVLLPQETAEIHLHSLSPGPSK
Sequence of full length recombinant Pim-2 (Q9P1W9 whole entry): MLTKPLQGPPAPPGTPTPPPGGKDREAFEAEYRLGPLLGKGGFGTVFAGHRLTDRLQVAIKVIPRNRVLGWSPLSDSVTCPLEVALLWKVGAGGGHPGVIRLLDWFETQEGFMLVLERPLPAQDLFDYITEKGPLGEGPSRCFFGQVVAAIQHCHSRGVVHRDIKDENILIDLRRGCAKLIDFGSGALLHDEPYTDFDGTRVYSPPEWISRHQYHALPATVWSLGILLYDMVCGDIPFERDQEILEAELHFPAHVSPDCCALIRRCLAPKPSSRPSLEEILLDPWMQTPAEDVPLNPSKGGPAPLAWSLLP

For the molecule `CC1CCN(c2cccc(-c3c[nH]c4ccc(-c5nnc(N)s5)cc34)n2)CC1` [Example 175, 5-(3-(6-(4-methyl-1-piperidinyl)-2-pyridinyl)-1H-indol-5-yl)-1,3,4-thiadiazol-2-amine], the IC50 came out at 17.7 nM in assay [1] (Pim-3 enzyme assay), 682 nM in assay [2] (setting [5]), 117 nM in assay [3] (Pim-2 enzyme assay) and 41.4 nM in assay [4] (setting [6]).

Consider `Nc1nnc(-c2ccc3[nH]cc(-c4cccc(OC5CCCCC5)n4)c3c2)s1` [Example 173, 5-(3-(6-(cyclohexyloxy)-2-pyridinyl)-1H-indol-5-yl)-1,3,4-thiadiazol-2-amine], for which the IC50 amounted to 1020 nM in assay [2] (Homo sapiens, U2OS cells, Pim-1 transfected, read-out: U2OS Pim1_Cell_IC50); 114 nM in assay [3] (Pim-2 enzyme assay); 40.5 nM in assay [4] (setting [6]).

As for `c1cc2[nH]cc(-c3cncc(C4CC4)n3)c2cc1-c1nnc(N2CCCC2)o1` [Example 37, 2-(3-(6-Cyclopropylpyrazin-2-yl)-1H-indol-5-yl)-5-(pyrrolidin-1-yl)-1,3,4-oxadiazole 2,2,2-trifluoroacetate], the IC50 was determined as 6.78 nM in assay [1], 237 nM in assay [2] (setting [7]), 80.1 nM in assay [3] and 9.14 nM in assay [4] (setting [6]).

In the case of `Nc1ncc(-c2ccc3[nH]cc(-c4cccc(N5CCOCC5)n4)c3c2)s1` [Example 213, 5-(3-(6-(4-morpholinyl)-2-pyridinyl)-1H-indol-5-yl)-1,3-thiazol-2-amine], the IC50 is 44.4 nM in assay [1] (Pim-3 enzyme assay), 1520 nM in assay [2] (setting [5]), 730 nM in assay [3] (Pim-2 enzyme assay) and 94.9 nM in assay [4].

Regarding `Nc1nnc(-c2ccc3[nH]cc(-c4cccc(N5CCCC5)n4)c3c2)s1` [Example 176, 5-(3-(6-(1-pyrrolidinyl)-2-pyridinyl)-1H-indol-5-yl)-1,3,4-thiadiazol-2-amine], the IC50 in assay [2] (setting [8]) was 526 nM; in assay [3] (Pim-2 enzyme assay), 104 nM; in assay [4] (read-out: Pim_1_IC50) it was 43.5 nM.

Regarding `Fc1ccccc1-c1c[nH]c2ccc(-c3nnc(NCC[C@H]4CCCCN4)s3)cc12` (stereo in doubt) [Example 141, 5-(3-(2-fluorophenyl)-1H-indol-5-yl)-N-(2-(2-piperidinyl)ethyl)-1,3,4-thiadiazol-2-amine], the IC50 came to 49.6 nM in assay [1] (Pim-3 enzyme assay), 1110 nM in assay [2] (setting [5]), 480 nM in assay [3] (Pim-2 enzyme assay) and 74 nM in assay [4] (setting [6]).

Take `CN1CCN(c2cnc(-c3c[nH]c4ccc(-c5nnc(N)s5)cc34)cn2)CC1` [Example 178, 5-(3-(5-(4-methyl-1-piperazinyl)-2-pyrazinyl)-1H-indol-5-yl)-1,3,4-thiadiazol-2-amine]: the IC50 in assay [1] (Pim-3 enzyme assay) was 54.1 nM; in assay [2] (setting [7]), 2250 nM; in assay [3] (Pim-2 enzyme assay) it was 459 nM; in assay [4] (setting [6]) it was 61.3 nM.

As for `CN1CCN(c2cccc(-c3c[nH]c4ccc(-c5nnc(N)s5)cc34)n2)CC1=O` [Example 30, 4-(6-(5-(5-amino-1,3,4-thiadiazol-2-yl)-1H-indol-3-yl)pyridin-2-yl)-1-methylpiperazin-2-one], the IC50 turned out to be 2.5 nM in assay [1] (Pim-3 enzyme assay), 1170 nM in assay [2] (setting [7]), 52.7 nM in assay [3] (Pim-2 enzyme assay) and 13.3 nM in assay [4] (read-out: Pim_1_IC50).

In the case of `C[C@@H]1CCCN(c2cccc(-c3c[nH]c4ccc(-c5nnc(N)s5)cc34)n2)C1` (stereo in doubt) [Example 174, 5-(3-(6-(3-methyl-1-piperidinyl)-2-pyridinyl)-1H-indol-5-yl)-1,3,4-thiadiazol-2-amine], the IC50 turned out to be 23.6 nM in assay [1] (Pim-3 enzyme assay), 998 nM in assay [2] (setting [5]), 159 nM in assay [3] (Pim-2 enzyme assay) and 41 nM in assay [4] (setting [6]).

In the case of `Nc1nnc(-c2ccc3[nH]cc(-c4cncc(NC5CC5)n4)c3c2)s1` [Example 15, 5-(3-(6-(cyclopropylamino)pyrazin-2-yl)-1H-indol-5-yl)-1,3,4-thiadiazol-2-amine], the IC50 in assay [2] (setting [7]) was found to be 108 nM; in assay [3] (Pim-2 enzyme assay) it was 20.1 nM; in assay [4] (read-out: Pim_1_IC50) it was 4.57 nM.

For the molecule `Nc1nnc(-c2ccc3[nH]cc(-c4cccc(N5CCCC5)n4)c3c2)s1` [Example 14, 5-(3-(6-(pyrrolidin-1-yl)pyridin-2-yl)-1H-indol-5-yl)-1,3,4-thiadiazol-2-amine], the IC50 in assay [2] (setting [8]) came to 159 nM; in assay [3] (Pim-2 enzyme assay) it was 42 nM; in assay [4] (read-out: Pim_1_IC50) it was 11.1 nM.

The values above are taken from US9321756B2, “Azole compounds as PIM inhibitors” (priority 2011, dated 2016).
